Experimental data published in patent publication US6737383B1, “Herbicidal oxadiazolidines” (priority 1999, dated 2004).

Legend:
wild oat = assay: Test B pre/postemergence wild oat; format: in vivo, Avena fatua; details: for Plant response rating, Wild oats: scale of 0 to 10 where 0 is no effect and 10 is complete control
How it was run: (§1)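 Herbicidal effect was estimated by eye on a ten-point control scale after plants spent twelve to sixteen days in a greenhouse following soil or foliar treatment. Foliar sprays targeted plants at one to four leaves; all doses were formulated in a non-phytotoxic solvent with surfactant.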

morningglory = assay: Test B pre/postemergence morningglory; format: in vivo, Ipomoea hederacea; details: for Plant response rating, Morningglory: scale of 0 to 10 where 0 is no effect and 10 is complete control
How it was run: as §1

rape = assay: Test B pre/postemergence rape; format: in vivo, Brassica napus; details: for Plant response rating, Rape: scale of 0 to 10 where 0 is no effect and 10 is complete control
How it was run: as §1

sugar beet = assay: Test B pre/postemergence sugar beet; format: in vivo, Beta vulgaris; details: for Plant response rating, Sugarbeets: scale of 0 to 10 where 0 is no effect and 10 is complete control
How it was run: as §1

pigweed = assay: Test B pre/postemergence pigweed; format: in vivo, Amaranthus retroflexus; details: for Plant response rating, Redroot pigweed: scale of 0 to 10 where 0 is no effect and 10 is complete control
How it was run: as §1

corn = assay: Test B pre/postemergence corn; format: in vivo, Zea mays
How it was run: as §1

giant foxtail = assay: Test B pre/postemergence giant foxtail; format: in vivo, Setaria faberii
How it was run: as §1

wheat = assay: Test B pre/postemergence wheat; format: in vivo, Triticum aestivum; details: for Plant response rating, Wheat: scale of 0 to 10 where 0 is no effect and 10 is complete control
How it was run: as §1

rice = assay: Test B flood test rice; format: in vivo, Oryza sativa
How it was run: (§2)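 Each value is a visual injury score relative to controls, with 10 meaning complete control and 0 no effect. Evaluation took place twelve to sixteen days after the 2-leaf-stage plants were treated and kept in the greenhouse.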

soybean = assay: Test B pre/postemergence soybean; format: in vivo, Glycine max; details: for Plant response rating, Soybean: scale of 0 to 10 where 0 is no effect and 10 is complete control
How it was run: as §1

crabgrass = assay: Test B pre/postemergence crabgrass; format: in vivo, Digitaria sanguinalis
How it was run: as §1

duck salad = assay: Test B flood test duck salad; format: in vivo, Heteranthera limosa
How it was run: as §2

cocklebur = assay: Test B pre/postemergence cocklebur; format: in vivo, Xanthium strumarium
How it was run: as §1

velvetleaf = assay: Test B pre/postemergence velvetleaf; format: in vivo, Abutilon theophrasti; details: for Plant response rating, Velvetleaf: scale of 0 to 10 where 0 is no effect and 10 is complete control
How it was run: as §1

bamyardgrass = assay: Test B flood test barnyardgrass; format: in vivo, Echinochloa crus-galli
How it was run: as §2

purple nutsedge = assay: Test B pre/postemergence purple nutsedge; format: in vivo, Cyperus rotundus; details: for Plant response rating, Nutsedge: scale of 0 to 10 where 0 is no effect and 10 is complete control
How it was run: as §1

[1] = Postemergence, Rate 250 g/ha, scale 0 to 10
[2] = Preemergence, Rate 250 g/ha, scale 0 to 10, 0 is no effect, 10 is complete control
[3] = Preemergence, Rate 500 g/ha, scale 0 to 10, 0 is no effect, 10 is complete control
[4] = Rate 62 g/ha, Postemergence, scale 0 to 10, 0 no effect, 10 complete control
[5] = Rate 125 g/ha, Postemergence, scale 0 to 10, 0 is no effect, 10 is complete control
[6] = Postemergence, Rate 500 g/ha, scale of 0 to 10 where 0 is no effect and 10 is complete control
[7] = Preemergence, Rate 62 g/ha, scale of 0 to 10 where 0 is no effect and 10 is complete control
[8] = Preemergence, Rate 125 g/ha, scale of 0 to 10 where 0 is no effect and 10 is complete control
[9] = Rate 62 g/ha, flood test species, Pre-emergence, visual evaluation after twelve to sixteen days
[10] = Rate 125 g/ha, under heading Pre-emergence, flood test species, visual evaluation after twelve to sixteen days
[11] = Rate 250 g/ha, Pre-emergence (flood test species), scale 0 to 10, 0 is no effect, 10 is complete control
[12] = Rate 500 g/ha, Pre-emergence, flood test species, scale 0 to 10 (0 no effect, 10 complete control)

Which results are given for CC(C)N(C(=O)n1oc(=O)n(CC#N)c1=O)c1ccc(Cl)cc1 [Compound 476]?
Wild oats plant response rating (wild oat; [1]): 0; Plant response rating, Wild oats (wild oat; Preemergence, Rate 62 g/ha): 0; Plant response rating, Wild oats (wild oat; Preemergence, Rate 125 g/ha): 0; Wild oats plant response rating (wild oat; [2]): 0; Wild oats plant response rating (wild oat; [3]): 0; Wild oats plant response rating (wild oat; [4]): 0; Wild oats plant response rating (wild oat; [5]): 0; Morningglory plant response rating (morningglory; [1]): 0; Plant response rating, Morningglory (morningglory; Preemergence, Rate 62 g/ha): 0; Plant response rating, Morningglory (morningglory; Preemergence, Rate 125 g/ha): 0; Morningglory plant response rating (morningglory; [2]): 0; Morningglory plant response rating (morningglory; [3]): 0; Morningglory plant response rating (morningglory; [4]): 0; Morningglory plant response rating (morningglory; [5]): 0; Rape plant response rating (rape; [1]): 0; Plant response rating, Rape (rape; Preemergence, Rate 62 g/ha): 0; Plant response rating, Rape (rape; Preemergence, Rate 125 g/ha): 0; Rape plant response rating (rape; [2]): 0; Rape plant response rating (rape; [3]): 0; Rape plant response rating (rape; [4]): 0; Rape plant response rating (rape; [5]): 0; Sugarbeets plant response rating (sugar beet; [1]): 0; Plant response rating, Sugarbeets (sugar beet; Preemergence, Rate 62 g/ha): 0; Plant response rating, Sugarbeets (sugar beet; Preemergence, Rate 125 g/ha): 0; Sugarbeets plant response rating (sugar beet; [2]): 0; Sugarbeets plant response rating (sugar beet; [3]): 0; Sugarbeets plant response rating (sugar beet; [4]): 0; Sugarbeets plant response rating (sugar beet; [5]): 0; Redroot pigweed plant response rating (pigweed; [1]): 0; Plant response rating, Redroot pigweed (pigweed; Preemergence, Rate 62 g/ha): 0; Plant response rating, Redroot pigweed (pigweed; Preemergence, Rate 125 g/ha): 0; Redroot pigweed plant response rating (pigweed; [2]): 2; Redroot pigweed plant response rating (pigweed; [3]): 4; Redroot pigweed plant response rating (pigweed; [4]): 0; Redroot pigweed plant response rating (pigweed; [5]): 0; Corn plant response rating (corn; [1]): 0; Corn plant response rating (corn; [6]): 0; Plant response rating, Corn (corn; [7]): 0; Plant response rating, Corn (corn; [8]): 0; Corn plant response rating (corn; [2]): 0; Corn plant response rating (corn; [3]): 0; Corn plant response rating (corn; [4]): 0; Corn plant response rating (corn; [5]): 0; Giant foxtail plant response rating (giant foxtail; [1]): 0; Giant foxtail plant response rating (giant foxtail; [6]): 0; Plant response rating, Giant foxtail (giant foxtail; [7]): 0; Plant response rating, Giant foxtail (giant foxtail; [8]): 0; Giant foxtail plant response rating (giant foxtail; [2]): 0; Giant foxtail plant response rating (giant foxtail; [3]): 0; Giant foxtail plant response rating (giant foxtail; [4]): 0; Giant foxtail plant response rating (giant foxtail; [5]): 0; Wheat plant response rating (wheat; [1]): 0; Plant response rating, Wheat (wheat; Preemergence, Rate 62 g/ha): 0; Plant response rating, Wheat (wheat; Preemergence, Rate 125 g/ha): 0; Wheat plant response rating (wheat; [2]): 0; Wheat plant response rating (wheat; [3]): 0; Wheat plant response rating (wheat; [4]): 0; Wheat plant response rating (wheat; [5]): 0; Plant response rating, Rice (0 to 10 scale, 0 is no effect, 10 is complete control) (rice; [9]): 0; Rice plant response rating (0 to 10 scale, 0 is no effect, 10 is complete control) (rice; [10]): 0; Rice plant response rating (rice; [11]): 0; Rice plant response rating (rice; [12]): 0; Soybean plant response rating (soybean; [1]): 2; Plant response rating, Soybean (soybean; Preemergence, Rate 62 g/ha): 0; Plant response rating, Soybean (soybean; Preemergence, Rate 125 g/ha): 0; Soybean plant response rating (soybean; [2]): 0; Soybean plant response rating (soybean; [3]): 0; Soybean plant response rating (soybean; [4]): 0; Soybean plant response rating (soybean; [5]): 1; Crabgrass plant response rating (crabgrass; [1]): 0; Crabgrass plant response rating (crabgrass; [6]): 0; Plant response rating, Crabgrass (crabgrass; [7]): 0; Plant response rating, Crabgrass (crabgrass; [8]): 0; Crabgrass plant response rating (crabgrass; [2]): 0; Crabgrass plant response rating (crabgrass; [3]): 0; Crabgrass plant response rating (crabgrass; [4]): 0; Crabgrass plant response rating (crabgrass; [5]): 0; Plant response rating, Ducksalad (0 to 10 scale, 0 is no effect, 10 is complete control) (duck salad; [9]): 0; Ducksalad plant response rating (0 to 10 scale, 0 is no effect, 10 is complete control) (duck salad; [10]): 0; Ducksalad plant response rating (duck salad; [11]): 0; Ducksalad plant response rating (duck salad; [12]): 0; Cocklebur plant response rating (cocklebur; [1]): 0; Cocklebur plant response rating (cocklebur; [6]): 0; Plant response rating, Cocklebur (cocklebur; [7]): 0; Plant response rating, Cocklebur (cocklebur; [8]): 0; Cocklebur plant response rating (cocklebur; [2]): 0; Cocklebur plant response rating (cocklebur; [3]): 0; Cocklebur plant response rating (cocklebur; [4]): 0; Cocklebur plant response rating (cocklebur; [5]): 0; Velvetleaf plant response rating (velvetleaf; [1]): 2; Plant response rating, Velvetleaf (velvetleaf; Preemergence, Rate 62 g/ha): 0; Plant response rating, Velvetleaf (velvetleaf; Preemergence, Rate 125 g/ha): 0; Velvetleaf plant response rating (velvetleaf; [2]): 0; Velvetleaf plant response rating (velvetleaf; [3]): 0; Velvetleaf plant response rating (velvetleaf; [4]): 0; Velvetleaf plant response rating (velvetleaf; [5]): 1; Plant response rating, Barnyardgrass (0 to 10 scale, 0 is no effect, 10 is complete control) (bamyardgrass; [9]): 0; Barnyardgrass plant response rating (0 to 10 scale, 0 is no effect, 10 is complete control) (bamyardgrass; [10]): 0; Barnyardgrass plant response rating (bamyardgrass; [11]): 0; Barnyardgrass plant response rating (bamyardgrass; [12]): 0; Nutsedge plant response rating (purple nutsedge; [1]): 0; Plant response rating, Nutsedge (purple nutsedge; Preemergence, Rate 62 g/ha): 0; Plant response rating, Nutsedge (purple nutsedge; Preemergence, Rate 125 g/ha): 0; Nutsedge plant response rating (purple nutsedge; [2]): 0; Nutsedge plant response rating (purple nutsedge; [3]): 0; Nutsedge plant response rating (purple nutsedge; [4]): 0; Nutsedge plant response rating (purple nutsedge; [5]): 0
